Test results as given in US9622472B2, “Molecules that induce disease resistance in plants” (The Regents of the University of California, priority 2013, dated 2017).

Legend:
[1] = system: virulent Peronospora isolate Noco2; experiment: Noco2 spore inhibition assay in soil-grown Col-0 seedlings; assay type: in vivo, Hyaloperonospora arabidopsidis (Peronospora)
Procedure: FIG. 1. Phenyl-imino-methyl-phenol derivatives (PMPs) constitute a large class of new synthetic elicitors. A: Structures of 20 PMP derivatives that were identified by high throughput screening as able to promote expression with the CaBP22 reporter assay. B. CMP199 was further analyzed in the Noco2 spore inhibition assay. Three-week-old soil-grown Col-0 seedlings were spray-infected 24 h after treating with varying concentrations of each synthetic elicitor and then assayed at 7 dpi for spore growth. 100% inhibition=0 spores. The assay was repeated three times with similar results, and the average of those three replicates is shown. DCA=3-5-dicholoroanthranlilic acid; HTC=2-(5-bromo-2-hydroxy-phenyl)-thiazolidine-4-carboxylic acid.
CMP199 (FIG. 1A) was selected for further study to determine whether CMP199 could induce pathogen resistance in soil-grown plants. […] To determine if CMP199 differs from other synthetic elicitors, Col-0 seedlings were treated with DCA or HTC at the indicated concentrations and compared.

[2] = system: pathogen-responsive CaBP22^−333::GUS reporter gene; conditions: transgenic Arabidopsis; reported in Knoth et al. (2009); cited from earlier work
[3] = system: Hyaloperonospora arabidopsidis (Peronospora); conditions: Arabidopsis; Knoth et al. (2009); cited from earlier work
[4] = system: Pseudomonas syringae; conditions: Arabidopsis; Knoth et al. (2009); cited from earlier work

| Compound | induction of disease resistance ([1]; A. thaliana) | inhibition of Noco2 spores, concentration compared with other synthetic elicitors ([1]; Col-0 seedlings, spray-infected 24 h after treating, assayed at 7 dpi, FIG. 1B) | concentration giving significantly reduced numbers of Noco2 spores ([1]; Col-0 sprayed prior to infection, spores 7 days post infection) | induction of pCaBP22^−333::GUS reporter gene [2] | disease resistance triggered [3] | disease resistance triggered [4] |
| --- | --- | --- | --- | --- | --- | --- |
| COc1cccc(N=Cc2cc(Cl)cc(Cl)c2O)c1 [CMP199, 2,4-dichloro-6-[((3-methoxy-phenyl)imino)methyl]-phenol] | able to induce disease resistance in A. thaliana at very low concentration | much lower concentration than DCA or HTC | ≤ 1 µM |  |  |  |
| Nc1c(Cl)cc(Cl)cc1C(=O)O [DCA, 3-5-dicholoroanthranlilic acid] |  |  |  | induce | fast, strong and transient disease resistance | fast, strong and transient disease resistance |
